US10815283B2, “Peptides for treatment of diabetes” (Follicum AB, priority 2017, dated 2020)
“Also recorded” adds a separate entry of the source. No end group written: not given here.

Tests used:
INS-1 cells [1] = test: Proliferation of INS-1 cells, [methyl-3H] thymidine incorporation; format: cell-based, rat
Description: To investigate if FOL-005 and FOL-014 could induce proliferation of β-cells we used INS-1 cells. Rat INS-1 cells were seeded in 96-well plates in RPMI medium with supplement and after 2 hours the medium was changed to RPMI without supplement. During the proliferation experiment the cells were incubated at different test conditions (FOL-005, FOL-014, coated or in solution, 48 h incubation) and during the last 20 hours of culture period the cells were pulsed with 1μ Ci/well of [methyl-3H] thymidine. The cells were then harvested onto glass fiber filters using a FilterMate harvester. The filters were air dried, and the bound radioactivity was measured using a liquid scintillation counter. To study whether FOL-005 influenced β-cell proliferation, INS-1 cells were treated with increasing amounts of soluble FOL-005 (0.06-6 μM) during 48 hours and proliferation was measured with radiolabeled thymidine incorporation into newly synthesized DNA.

INS-1 cells [2] = test: Glucotoxicity-induced apoptosis in INS-1 cells (Annexin V staining, caspase-3 activity); format: cell-based, rat; conditions: 20 mM glucose, 48 h, vs 20 mM glucose alone
Description: Since glucotoxicity in pancreatic β-cells is a well-established process in type 2 diabetes we next investigated the protective effects of FOL-005 on β-cells during glucotoxic conditions. First we confirmed that 20 mM glucose induced cell apoptosis in INS cells after 48 h of exposure. High glucose (20 mM) containing RPMI medium induced more Annexin V positive cells and more caspase-3 activity in INS cells compared to cells incubated with medium containing 5 mM glucose (FIG. 2A-B). […] The rate of apoptosis in INS-1 cells was measured with either Caspase-3 Assay Kit or stained with Annexin V Apoptosis Detection Kit with 7-AAD. Caspase-3 activity was measured with fluorescence at an excitation wavelength of 380 nm and an emission wavelength of 440 nm. Caspase-3 activity was then normalized to protein concentration in each well. Measurements of Annexin V stained cells were performed using a CyAn ADP flow cytometer and analyzed with Summit V4.3 software.

INS-1 β-cells = test: Insulin secretion from INS-1 cells, insulin radioimmunoassay (Examples 4 and 6); format: cell-based, rat; conditions: peptide 6 μM, 60 min
Description: To investigate the stimulatory effect of FOL-005 on insulin secretion, INS-1 β-cells were used in the following experiments. Cells were seeded overnight in cRPMI and then washed with PBS before pre-incubation for 60 min at 37° C. in Krebs-Ringer bicarbonate buffer (KRB), pH 7.4, supplemented with 10 mM HEPES, 0.1% bovine serum albumin. After pre-incubation, the buffer was changed and the INS-1 cells were incubated at different test conditions (0 mM, 5 mM or 20 mM glucose) and stimulated with peptide FOL-005 or FOL-015 (SEQ ID NO: 158) or left untreated during 60 min at 37° C. Immediately after incubation, an aliquot of the buffer was removed and frozen for subsequent assay of insulin with an insulin radioimmunoassay kit.
INS-1 β-cells were used to investigate the stimulatory effect of FOL-014 on insulin secretion. Cells were seeded overnight and then washed with PBS before pre-incubation for 60 min at 37° C. in Krebs-Ringer bicarbonate buffer (KRB), pH 7.4, supplemented with 10 mM HEPES, 0.1% bovine serum albumin. After pre-incubation, the buffer was changed and the INS-1 cells were incubated in new KRB buffer supplemented with 10 mM HEPES, 0.1% bovine serum albumin and stimulated with peptide FOL-014 or left untreated during 60 min at 37° C. Immediately after incubation, an aliquot of the buffer was removed and frozen for subsequent assay of insulin.

mouse pancreatic islets = test: Insulin secretion from isolated mouse pancreatic islets (Examples 5 and 7); format: cell-based; conditions: 60 min
Description: Mouse pancreatic islets were isolated from 8-week old C57BL/6J male mice (Taconic). Mice were sacrificed by an overdose of isoflurane and cervical dislocation. 3 ml of 0.9 U/ml collagenase P was injected into the pancreatic duct to inflate the pancreas. The pancreas was then removed and collagen digested for 19 min at 37° C. The samples were vigorously shaken to disrupt the tissue. The digest was transferred into ice cold Hank's Balanced Salt Solution (HBSS) with Ca^2+ and Mg^2+. The suspension was allowed to sit for 10 min to allow the islet to sink, and the islets were washed in fresh HBSS four times. The islets were then hand-picked and sorted according to size. Islets (n=3 per well in a 96 well plate) were pre-incubated in KRB buffer during 10 min 37° C., pH 7.4, supplemented with 10 mM HEPES, 0.1% bovine serum albumin. After pre-incubation, the buffer was changed and islets were incubated at different test conditions in new KRB buffer with 0.1% bovine serum albumin (non-treated ctrl, FOL-005 peptide, or GLP-1) for 60 min at 37° C. Immediately after incubation, an aliquot of the buffer was removed and frozen for subsequent assay of insulin.
Mouse pancreatic islets were isolated from 8-week old C57BL/6J male mice as described under example 5. The islets were then hand-picked and sorted according to size. Islets (n=5 per well in a 96 well plate) were pre-incubated in 200 μl KRB buffer during 10 min 37° C., pH 7.4, supplemented with 10 mM HEPES, 0.1% bovine serum albumin. Following pre-incubation, the buffer was changed and islets were incubated in different test conditions in new KRB buffer with 0.1% bovine serum albumin (non-treated ctrl, FOL-014 peptide, and GLP-1) for 60 min at 37° C. Immediately after incubation, an aliquot of the buffer was removed and frozen for subsequent assay of insulin.

[3] = Distribution of H3 labelled peptide, whole body sectioning; format: in vivo, mouse; conditions: subcutaneous, C57Bl/6 mice, 1 h and 2 h after injection
Description: C57Bl/6 mice were injected subcutaneously with H^3 labelled FOL-005 and euthanized at 1 h (FIG. 12A) or 2 h (FIG. 12B) after injection. Following whole body sectioning the distribution of the labelled peptide was visualised. […] Using Pearl Trilogy Small Animal Imaging System, in vivo bio-distribution and tissue localization of two Cy7.5 labelled peptides, FOL-005 (FIG. 12C) and FOL-014 (FIG. 12D) in NMRI nude mice via subcutaneous injection was investigated. […] The dose of each peptide was 10 nmol per mouse. The mice were imaged before injection, at 5 min, 20 min, 50 min, 60 min, 2 hrs, 4 hrs, 6 hrs, 24 hrs and 48 hrs post administration of labelled peptide.

[4] = In vivo bio-distribution of Cy7.5 labelled peptides, Pearl Trilogy Small Animal Imaging System; set-up: species or system mouse; conditions: Cy7.5 labelled peptide
isolated mouse islets = test: Insulin and glucagon secretion from isolated mouse islets at low and high glucose (Example 12); format: cell-based; conditions: 100 nM GLP-1, 1 h
Description: Twelve-week-old male C57/bl6 mice were euthanized with isoflurane and cervical dislocation. After clamping the hepatic ducts, 3 ml of 0.9 U/ml collagenase P was injected into the bile duct to inflate the pancreas. The pancreas was then removed and digested for 19 min at 37° C. The samples were vigorously shaken to disrupt the tissue. The digest was quickly transferred into ice cold Hank's Balanced Salts Solution with Ca^2+ and Mg^2+. The suspension was allowed to sit for 8 min to allow the islet to sink, and the islets were washed in the same manner four times. The islets were then handpicked and sorted according to size.
Freshly isolated islets were seeded in groups of 5 in a 96-well plate and preincubated for 1 h at 37° C. in a Krebs-Ringer bicarbonate buffer (pH 7.4). The islets were incubated for 1 h at 37° C. in Krebs-Ringer buffered solution supplemented with 0.6 or 6 μM FOL-014 or 100 nM GLP-1 or left unsupplemented for control. Immediately after incubation, the medium was removed for assays of insulin and glucagon using Mercodia's ELISA kits. The effect of FOL-014 on insulin (FIGS. 8A and B) and glucagon (FIGS. 8C and D) secretion from isolated mouse islets was measured in the presence of low glucose (2.8 mM; FIGS. 8A and C) or high glucose (16.7 mM; FIGS. 8B and D) concentrations.

Row | Substance | INS-1 cell proliferation (radiolabeled thymidine incorporation) (INS-1 cells [1]; soluble peptide 0.06-6 μM, 48 hours) | INS-1 cell proliferation (radiolabeled thymidine incorporation) (INS-1 cells [1]; wells coated with peptide and blocked with BSA, vs control coated wells) | cell apoptosis, Annexin V staining (INS-1 cells [2]) | cell apoptosis, caspase-3 activity (INS-1 cells [2]) | insulin secretion (INS-1 β-cells; 5 mM glucose) | insulin secretion (INS-1 β-cells; 20 mM glucose) | insulin secretion (INS-1 β-cells; conditions without glucose) | insulin secretion (mouse pancreatic islets; Example 5, 3 islets per well, peptide 6 μM) | tissue distribution of radioactivity [3] | bio-distribution and tissue localization ([4]; i.v. administration (not shown)) | bio-distribution and tissue localization ([4]; subcutaneous, 10 nmol per mouse, NMRI nude mice, 5 min to 48 hrs) | insulin secretion (mouse pancreatic islets; Example 5, 3 islets per well, GLP-1 100 nM) | insulin secretion (mouse pancreatic islets; Example 7, 5 islets per well, GLP-1 100 nM) | glucagon secretion (isolated mouse islets; high glucose (16.7 mM)) | insulin secretion (isolated mouse islets; high glucose (16.7 mM)) | glucagon secretion (isolated mouse islets; low glucose (2.8 mM)) | insulin secretion (isolated mouse islets; low glucose (2.8 mM))
1 | VDTYDGDISVVYGLR ((1)..(15) peptide, FOL-005) | stimulated INS-1 cell proliferation | stimulated proliferation compared to control (ctrl) coated wells | decreased cell apoptosis | decreased cell apoptosis | responded with insulin secretion | responded with more insulin secretion compared to FOL-005 stimulated cells incubated with 5 mM glucose | secreted more insulin compared to unstimulated control cells | secreted more insulin compared to unstimulated control islets | Strong binding was evident in pancreas and at the site of injection; also recorded: also visible in liver, kidney, salivary glands | same distribution pattern | High accumulation of the peptide was evident in the pancreatic tissue area | – | – | – | – | – | –
2 | glucagon-like peptide-1 (HAEGTFTSDVSSYLEGQAAKEFIAWLVKGR; ends and bridges not checked; UniProt P01275 98-127, looked up) [GLP-1, metabolic hormone that stimulates insulin secretion; native GLP-1 used as comparator] | – | – | – | – | – | – | – | – | – | – | – | secreted more insulin compared to unstimulated control islets | did not affect insulin secretion | efficiently reduced glucagon secretion | significantly increased insulin secretion | failed to inhibit glucagon secretion in low glucose conditions | enhanced insulin secretion also in low glucose samples
